Assay results from EPA's ToxValDB 9.5 (doi:10.2903/j.efsa.2015.3958).

Key:
Folsomia candida = conditions: chronic/long-term; duration: 28 days
Daphnia magna = conditions: chronic/long-term; duration: 21 days; reproduction
Pimephales promelas = conditions: chronic/long-term; duration: 32 days; growth
Hypoaspis aculeifer = conditions: acute; duration: 14 days
Apis mellifera = conditions: acute; oral; unspecified; mortality

COc1nc(C)nc(NC(=O)NS(=O)(=O)c2ccccc2OCCCl)n1 [Triasulfuron]
LD50 (Rattus norvegicus; acute, mortality): > 5000 mg/kg
NOAEL (Rattus norvegicus; chronic): 50 mg/kg-day
LC50 (Colinus virginianus; acute, oral, diet, mortality): > 5000 mg/kg
LD50 (Colinus virginianus; acute, oral, mortality): > 2150 mg/kg
NOEL (Colinus virginianus; reproduction developmental): 94 mg/kg-day
NOEC (Folsomia candida): 100 mg/kg
NOEC (Daphnia magna): 10 mg/L
LC50 (Tagia sp.; acute, duration: 14 days, mortality): > 1000 mg/kg
NOEC (Tagia sp.; chronic/long-term, duration: 8 weeks): 50.8 mg/kg
NOEC (Pimephales promelas): 36.6 mg/L
NOEC (Hypoaspis aculeifer): 100 mg/kg
LD50 (Apis mellifera): > 100 µg/piece
